We go through 1 compound from patent publication US5430033A, “Piperazine derivatives” (John Wyeth & Brother Ltd., priority 1993, dated 1995).

In assay [1] the target is T1, 5-HT1A receptor (Rattus norvegicus, UniProt P19327).
T1 construct: rat hippocampal membrane homogenate; from tissue; host or cells: rat hippocampus, membrane homogenate
T1 sequence (P19327 1-422): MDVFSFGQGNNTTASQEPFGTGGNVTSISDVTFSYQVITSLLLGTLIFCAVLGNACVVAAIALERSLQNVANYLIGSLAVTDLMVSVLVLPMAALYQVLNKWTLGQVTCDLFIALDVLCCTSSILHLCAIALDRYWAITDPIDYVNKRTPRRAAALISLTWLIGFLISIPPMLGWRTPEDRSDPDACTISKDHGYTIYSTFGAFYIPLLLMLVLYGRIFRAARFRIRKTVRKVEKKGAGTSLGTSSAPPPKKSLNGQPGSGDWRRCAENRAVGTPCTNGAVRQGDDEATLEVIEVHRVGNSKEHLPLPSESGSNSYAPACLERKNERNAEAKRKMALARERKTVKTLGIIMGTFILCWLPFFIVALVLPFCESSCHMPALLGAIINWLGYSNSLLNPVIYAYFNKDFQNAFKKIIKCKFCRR
The assay can be described thus: 5-HT1A receptor binding activity in rat hippocampal membrane homogenate. As to conditions: method of Alexander and Wood. The procedure: The compounds of the invention are tested for 5-HT1A receptor binding activity in rat hippocampal membrane homogenate by the method of B S Alexander and M D Wood, J Pharm Pharmacol, 1988, 40, 888-891.

Assay [2] addresses T2, 5-HT1A receptor (Cavia porcellus, UniProt A0A286Y074).
T2 construct: guinea-pig ileum in vitro; from tissue; host or cells: guinea-pig ileum
T2 sequence (A0A286Y074 1-421): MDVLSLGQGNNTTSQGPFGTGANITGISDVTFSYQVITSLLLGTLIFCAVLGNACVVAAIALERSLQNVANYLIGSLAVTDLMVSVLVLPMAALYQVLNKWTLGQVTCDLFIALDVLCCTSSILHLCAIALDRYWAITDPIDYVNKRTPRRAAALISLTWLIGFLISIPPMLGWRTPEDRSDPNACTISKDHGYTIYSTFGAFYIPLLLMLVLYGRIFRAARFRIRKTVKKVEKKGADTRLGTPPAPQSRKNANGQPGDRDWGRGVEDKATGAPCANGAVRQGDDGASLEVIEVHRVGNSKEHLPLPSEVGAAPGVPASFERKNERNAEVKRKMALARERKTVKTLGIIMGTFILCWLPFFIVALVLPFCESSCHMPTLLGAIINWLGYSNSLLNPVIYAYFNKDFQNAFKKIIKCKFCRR
Nature of the assay: 5-HT1A receptor antagonism: antagonism of 5-carboxamidotryptamine in the guinea-pig ileum in vitro. Type of assay: cell-based. The procedure: The compounds are tested for 5-HT1A receptor antagonism activity in a test involving the antagonism of 5-carboxamidotryptamine in the guinea-pig ileum in vitro (based upon the procedure of Fozard et al, Br J Pharmac, 1985, 86, 601P).

Structures are written as SMILES.

By IC50 is commonly meant the concentration that inhibits the measured activity by half. Compound `COc1ccccc1N1CCN(CCc2ccccc2-c2ccccc2)CC1` [Example 3, 1-(2-(2-biphenyl)ethyl)-4-(2-methoxyphenyl)piperazine] displayed a half-maximal inhibitory concentration (IC50) at 5-HT1A receptor [1] of 2 nM. In addition, the “pA2, 5-HT1A receptor antagonism” value at 5-HT1A receptor [2] is reported as 8.1.
